One series deals with angiogenesis. The settings on record: free-form product; Example 368 of WO 02/32872; cited from earlier work.
For a further series, the target named is c-Kit kinase (Homo sapiens, UniProt P10721). As to conditions: cited from earlier work.
Series [1] can be described thus: Test for measuring dissolution rate (rotating disk method). As to conditions: 2nd fluid pH 6.8, 37° C., 50 rpm. Format: physicochemical. As for the experimental part:
The dissolution rates of the following crystals were measured under the conditions described below by the rotating disk method (see, J. H. Woods et al., J. Pharm. Soc., 54, 1068 (1955)): a crystalline form of the free carboxamide (obtained in Preparation Example 1), a crystalline form of the hydrochloride of the carboxamide (obtained in Example 1), a crystalline form of the hydrobromide of the carboxamide (obtained in Example 2), a crystalline form of the methanesulfonate (hereunder, referred to as “mesylate”) of the carboxamide (Form A) (obtained in Example 5), a crystalline form of the mesylate of the carboxamide (Form C) (obtained in Example 7) and a crystalline form of the ethanesulfonate (hereunder, referred to as “esylate”) (Form β) (obtained in Example 12). The dissolution rates were calculated based on a range in which linearity was maintained in the relation between concentration and time at the initial stage of dissolution.
(Rotating Disk Method Conditions)
• Solvent: “2nd fluid” (pH 6.8, 500 mL) as described in Japanese Pharmacopoeia 14th Edition, General Tests (disintegration test) • Temperature: 37° C. • Disk rotation speed: 50 rpm • Area of powder contacting with solvent on disk: 1 cm^2 • Sampling amount: approx. 1 mL (HPLC Conditions) • Column: Cadenza CD-18 (Imtakt Corporation; inner diameter 4.6 mm, Column length 100 mm, particle size 3 μm) • Column temperature: 40° C. • Flow rate: 1.0 mL/min • Mobile phase:
Concentration of solution B: 20% • Injection amount: 100 μL • Detection: ultraviolet absorbance photometer (wavelength: 252 nm) • Temperature of auto sampler: 25° C. [Results]

The nature of series [2]: Study of pharmacokinetics in beagle dogs. Format: in vivo. The settings on record: mean ± standard error; for BA: beagle dogs n=3, oral 3 mg/kg as free form vs single intravenous administration of free form. On the procedure:
A crystalline form of the free from of the carboxamide (obtained in Preparation Example 1), a crystalline form of the hydrobromide of the carboxamide (obtained in Example 2) and a crystalline form of the mesylate of the carboxamide (Form A) (obtained in Example 5) were grounded in a mortar, encapsulated in a gelatin capsule, and then administered orally to beagle dogs (n=3). After administration, 10 mL of water was further administered orally. The dose was set such that it was equivalent to 3 mg/kg as a free form, and the beagle dogs were fasted from the day before administration, and fed again 8 hours after the administration.
To calculate bioavailability (BA), a test was conducted using a single intravenous administration. More specifically, a crystalline form of the free from of the carboxamide was dissolved in a solution containing 10% dimethyl sulfoxide, 50% polyethylene glycol 400 and 40% 0.1 M aqueous solution of hydrochloric acid and administered intravenously through cephalic vein of the foreleg.
The plasma concentration of the carboxamide was measured by HPLC-UV method after sampling blood from cephalic vein of the foreleg. Based on the concentration, pharmacokinetic parameters were calculated for each individual by the moment method. Further, based on the calculated parameters, the mean value and standard error thereof were calculated.

A short description of series [3]: Temperature-controlled powder X-ray diffraction. Format: physicochemical. The settings on record: 2° C./min. As for the experimental part: Powder X-ray diffraction was conducted under the measurement conditions similar to those in 4. (powder X-ray diffraction) of Test Examples 3. The temperature was increased according to the following conditions. • Temperature controller: PCT-20 (manufactured by Rigaku Denki K.K.) • Rate for the increase of the temperature: 2° C./min • Measurement temperatures: 30° C., 40° C., 60° C., 80° C., 120° C., 140° C., 180° C., 200° C., 205° C., 210° C. and 215° C. [Results]

Series [4] can be described thus: Powder X-ray diffraction with a treatment of humidification. Format: physicochemical. The settings on record: room temperature. As for the experimental part:
Powder X-ray diffraction was measured under the measurement conditions similar to those in 4. (powder X-ray diffraction) of Test Example 3. Humidification was carried out using a humidity control unit HUM-1A (manufactured by Rigaku Denki K. K.)), to sequentially adjust relative humidity to 3%, 30%, 50%, 60%, 70%, 75%, 80% and 85% at room temperature.

The nature of series [5]: Evaluation of hygroscopicity (storage 1 week; water content, powder X-ray diffraction). In kind it is physicochemical. On the procedure: The hygroscopicity and solid stability of a crystalline form of the mesylate of the carboxamide (Form A) (obtained in Example 5), a crystalline form of the mesylate of the carboxamide (Form C) (obtained in Example 7), a crystalline form of the acetic acid solvate of the mesylate of the carboxamide (Form I) (obtained in Example 10) and a crystalline form of the esylate of the carboxamide (Form β) (obtained in Example 12) were measured under the following conditions.
1. Storage Conditions for the Hygroscopicity Test (Period: 1 Week)
a-1. 25° C., relative humidity 75%
b-1. 25° C., relative humidity 93%
Analysis was carried out according to “X-Ray Powder Diffraction Method” described in Japanese Pharmacopoeia 14th Edition, General Tests (B-614 to 619) under the following measurement conditions. • Apparatus: RINT-2000 (manufacture by Rigaku Denki K. K.) • X-ray: CuKα ray • Monochrometer: curved crystal monochrometer • Goniometer: vertical goniometer • Counter: scintillation counter • Applied voltage: 40 kV • Charging current: 200 mA • Scan speed: 5°/min • Scan axis: 2θ/θ • Scan range; 2θ+5° to 40° • Divergent slit: 0.5° • Scattering slit: 0.5° • Receiving slit: 0.3 mm 5. Measurement of Water Content
Measurement was carried out according to the Water Determination as described in Japanese Pharmacopoeia 14th Edition, General Tests (B-318 to 331) using 6 to 10 mg of each crystal.

Series [6] can be described thus: Evaluation of solid stability (storage 2 weeks; total impurity by HPLC, water content, powder X-ray diffraction). In kind it is physicochemical. As for the experimental part: 2. Storage Conditions for the Solid Stability Test (Period: 2 Weeks) a-2. −20° C. (well closed) b-2. 25° C., light irradiation (1000 1×; shading with aluminum foil, well closed) c-2. 25° C., light irradiation (1000 1×; well closed) […]
e-2. 60° C. (well closed except the following case: slightly open in the case of a crystalline form of the acetic acid solvate of the mesylate (Form I))
3. Method for Measuring the Impurity Amount by HPLC
After storage, the sample solution was prepared by adding a mixed solvent of water and methanol (3:1) to each crystal at 0.1 mg/mL as final concentration.
Tests were conducted by the HPLC method for these sample solutions under the measurement conditions described below, and the eluted peak areas were measured to determine the total impurity amount by the relative area method (impurities of 0.05% or more were counted).
(Formula for Calculating Total Impurity Amount)
• Individual impurity amount (%)=(the peak area for the individual impurity)×100/{(the peak area for carboxamide)+(sum of the peak areas for impurities)} • Total impurity amount (%)=sum of individual impurity amounts (HPLC Measurement Conditions) • Column: Mightysil RP-18 GP (Kanto Kagaku; inner diameter 4.6 mm, column length 150 mm, particle size 3 μm) • Column temperature: constant temperature in vicinity of 40° C. • Flow rate: 1.0 mL/min • Mobile phase:
Solution B: CH3CN:H2O:HClO4=900:100:1 (v/v/v) • Gradient conditions […]
• Injection amount: 10 μL • Detection: ultraviolet absorbance photometer (wavelength: 252 nm) • Temperature of auto sampler: constant temperature in vicinity of 10° C. 4. Powder X-ray Diffraction […]
Measurement of Water Content

The mark [7] stands for this setting: beagle dogs n=3, oral, gelatin capsule, 3 mg/kg as free form, fasted.
Where [8] appears, read: 25° C., relative humidity 75% or 93%, 1 week.
Where [9] appears, read: a-2: −20° C. (well closed), 2 weeks.
Setting [10] is: b-2: 25° C., light irradiation 1000 lx, shading with aluminum foil, well closed, 2 weeks.
[11] abbreviates: c-2: 25° C., light irradiation 1000 lx, well closed, 2 weeks.
[12] abbreviates: d-2: 40° C., relative humidity 75%, 2 weeks.
Setting [13] is: e-2: 60° C., 2 weeks (well closed; slightly open for Form I).

We go through five molecules from US7612208B2, “Crystalline form of the salt of 4-(3-chloro-4-(cyclopropylaminocarbonyl)aminophenoxy)-7-methoxy-6-quinolinecarboxamide or the solvate of the salt and a process for preparing the same” (Eisai R&D Management Co., Ltd., priority 2003, dated 2009).

Chain of c-Kit kinase (P10721 26-976): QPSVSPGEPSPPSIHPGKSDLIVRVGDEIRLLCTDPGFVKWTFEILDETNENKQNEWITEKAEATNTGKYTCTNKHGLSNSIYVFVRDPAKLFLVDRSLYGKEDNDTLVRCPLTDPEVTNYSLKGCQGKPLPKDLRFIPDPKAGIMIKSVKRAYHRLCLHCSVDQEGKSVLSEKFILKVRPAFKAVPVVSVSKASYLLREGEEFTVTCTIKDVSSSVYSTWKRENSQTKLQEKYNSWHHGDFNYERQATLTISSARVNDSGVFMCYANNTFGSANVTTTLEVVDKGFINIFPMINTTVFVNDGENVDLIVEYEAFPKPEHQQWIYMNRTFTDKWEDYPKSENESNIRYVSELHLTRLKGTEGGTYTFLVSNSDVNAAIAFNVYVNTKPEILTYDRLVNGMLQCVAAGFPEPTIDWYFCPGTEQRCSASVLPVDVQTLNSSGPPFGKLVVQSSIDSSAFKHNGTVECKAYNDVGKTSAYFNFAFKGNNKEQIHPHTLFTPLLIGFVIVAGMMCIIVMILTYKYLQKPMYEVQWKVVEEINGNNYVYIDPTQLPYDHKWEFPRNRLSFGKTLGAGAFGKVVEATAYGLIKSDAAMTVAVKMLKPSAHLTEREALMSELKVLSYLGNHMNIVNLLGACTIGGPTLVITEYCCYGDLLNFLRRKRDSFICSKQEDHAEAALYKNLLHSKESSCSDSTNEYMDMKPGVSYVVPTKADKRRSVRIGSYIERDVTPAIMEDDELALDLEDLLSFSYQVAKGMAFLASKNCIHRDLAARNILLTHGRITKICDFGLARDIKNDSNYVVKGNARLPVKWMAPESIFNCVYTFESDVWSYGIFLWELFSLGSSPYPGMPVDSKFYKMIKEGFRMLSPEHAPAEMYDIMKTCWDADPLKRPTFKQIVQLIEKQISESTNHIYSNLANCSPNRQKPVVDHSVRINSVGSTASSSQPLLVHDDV

For `COc1cc2nccc(Oc3ccc(NC(=O)NC4CC4)c(Cl)c3)c2cc1C(N)=O` [free form, 4-(3-chloro-4-(cyclopropylaminocarbonyl)aminophenoxy)-7-methoxy-6-quinolinecarboxamide], the angiogenesis inhibition result in the series with angiogenesis is listed as “excellent angiogenesis inhibition”. For the same molecule, the “inhibitory action for c-Kit kinase” value on c-Kit kinase is reported as “strong inhibitory action”. For the same molecule, the dissolution rate in series [1] is on record as 0.8 μg/min/cm^2. For the same molecule, the BA in series [2] stood at 9.1 ± 0.4%. For the same molecule, in series [2] (dog, plasma, beagle dogs n=3, oral, gelatin capsule, 3 mg/kg as free form, fasted, read-out: AUC0-24hr), the AUC(0-t) is 600 ng·h/mL. Moreover, in series [2] (dog, plasma, beagle dogs n=3, oral, gelatin capsule, 3 mg/kg as free form, fasted, read-out: Maximum plasma concentration (Cmax)), the Cmax came out at 53.3 ± 9.9 ng/mL. Moreover, in series [2] (dog, plasma, beagle dogs n=3, oral, gelatin capsule, 3 mg/kg as free form, fasted, read-out: plasma concentration after 24 hours (C24hr)), the concentration at 24 h is 24 ± 9 ng/mL. Besides, the Tmax in series [2] (dog, plasma, beagle dogs n=3, oral, gelatin capsule, 3 mg/kg as free form, fasted, read-out: time to reach maximum plasma concentration (Tmax)) is 1.17 ± 0.4 h.

With `COc1cc2nccc(Oc3ccc(NC(=O)NC4CC4)c(Cl)c3)c2cc1C(N)=O.CS(=O)(=O)O.C[S+](C)[O-]` [Dimethyl Sulfoxide Solvate of Methanesulfonate of 4-(3-chloro-4-(cyclopropylaminocarbonyl)aminophenoxy)-7-methoxy-6-quinolinecarboxamide], the “crystal transition on heating” value in series [3] (temperatures from 30° C. to 80° C.) is “crystal transition was not observed”; in series [3] (temperatures of 120° C. or more), “transition to a crystalline form of the mesylate (Form C) was observed”.

`Br.COc1cc2nccc(Oc3ccc(NC(=O)NC4CC4)c(Cl)c3)c2cc1C(N)=O` [hydrobromide, Hydrobromide of 4-(3-chloro-4-(cyclopropylaminocarbonyl)aminophenoxy)-7-methoxy-6-quinolinecarboxamide]: the dissolution rate in series [1] came out at 8.7 μg/min/cm^2. Moreover, in series [2], the BA turned out to be 73.5 ± 2.3%. Besides, in series [2] (setting [7]), the AUC0-24hr is 4800 ± 200 ng·h/mL, the “Maximum plasma concentration (Cmax)” value came out at 480.4 ± 31.4 ng/mL, the “plasma concentration after 24 hours (C24hr)” value amounted to 100.5 ± 81.7 ng/mL and the “time to reach maximum plasma concentration (Tmax)” value was 2.67 ± 0.7 h.

As for `COc1cc2nccc(Oc3ccc(NC(=O)NC4CC4)c(Cl)c3)c2cc1C(N)=O.CS(=O)(=O)O` [mesylate (Form B), Methanesulfonate of 4-(3-chloro-4-(cyclopropylaminocarbonyl)aminophenoxy)-7-methoxy-6-quinolinecarboxamide], the “crystal transition on humidification” value was “did not exhibit a crystal transition” in series [4] (relative humidity from 3% to 70%); “mixture of crystalline forms of the mesylate (Form B) and (Form C)” in series [4] (relative humidity of 75% and 80%); “complete transition to a crystalline form of the mesylate (Form C)” in series [4] (relative humidity of 85%).

On to `COc1cc2nccc(Oc3ccc(NC(=O)NC4CC4)c(Cl)c3)c2cc1C(N)=O.CS(=O)(=O)O` [mesylate (Form A), Methanesulfonate of 4-(3-chloro-4-(cyclopropylaminocarbonyl)aminophenoxy)-7-methoxy-6-quinolinecarboxamide], for which the “change in appearance and crystal transition” value in series [5] (setting [8]) is “Neither remarkable change in appearance nor crystal transition was observed”. Further, in series [5] (setting [8]), the “change of water content” value is reported as “did not change remarkably”. Also, in series [5] (setting [8]), the hygroscopicity entry is reported as “not observed”. Besides, the water content in series [5] (a-1: 25° C., relative humidity 75%, 1 week) came out at 0.6%; in series [5] (b-1: 25° C., relative humidity 93%, 1 week), 0.7%; in series [5] (hygroscopicity test, initial) it was 0.7%; in series [6] (setting [9]), 0.0%; in series [6] (setting [10]) it was 0.0%; in series [6] (setting [11]), 0.1%. The water content in series [6] (setting [12]) is reported as 0.2%; in series [6] (setting [13]), 0.2%; in series [6] (solid stability test, initial), 0.3%. The total impurity is reported as 3.90% in series [6] (setting [9]); 3.95% in series [6] (setting [10]); 4.23% in series [6] (setting [11]); 3.90% in series [6] (setting [12]); 3.97% in series [6] (setting [13]); 4.02% in series [6] (solid stability test, initial, HPLC relative area). Besides, the “changes in water content and appearance, crystal transition” value in series [6] (solid stability test, 2 weeks, all storage conditions) was “neither remarkable changes in water content and appearance nor crystal transition was observed”. In series [1], this molecule registered a dissolution rate of 11.8 μg/min/cm^2. The molecule further returned a BA in series [2] of 46.2 ± 5.9%. In series [2] (setting [7]), this molecule registered an AUC0-24hr of 3000 ± 400 ng·h/mL. The “Maximum plasma concentration (Cmax)” value in series [2] (setting [7]) came to 397.1 ± 100.1 ng/mL. For the same molecule, in series [2] (setting [7]), the “plasma concentration after 24 hours (C24hr)” value was 17.1 ± 2.5 ng/mL. Further, in series [2] (setting [7]), the “time to reach maximum plasma concentration (Tmax)” value was determined as 1.67 ± 0.3 h.
